Experimental data taken from patent US20240059673A1, “SUBSTITUTED INDOLE COMPOUNDS” (Gilead Sciences, Inc., priority 2020, published 2024).
Where two headings read alike, the source gives them in different places.

What was measured:
TLR7 = molecular target: T1, TLR7 (Homo sapiens, UniProt Q9NYK1); experiment: Human PBMC cell-based assay, TLR7 agonist stimulation; settings: human PBMCs, read-out: TLR-7 EC50
T1 construct: lymphocytes, monocytes and dendritic cells that express TLR7, TLR8 and TLR9; endogenous in cells; host or cells: cryopreserved human PBMCs from healthy donors
T1 sequence (Q9NYK1 27-1049): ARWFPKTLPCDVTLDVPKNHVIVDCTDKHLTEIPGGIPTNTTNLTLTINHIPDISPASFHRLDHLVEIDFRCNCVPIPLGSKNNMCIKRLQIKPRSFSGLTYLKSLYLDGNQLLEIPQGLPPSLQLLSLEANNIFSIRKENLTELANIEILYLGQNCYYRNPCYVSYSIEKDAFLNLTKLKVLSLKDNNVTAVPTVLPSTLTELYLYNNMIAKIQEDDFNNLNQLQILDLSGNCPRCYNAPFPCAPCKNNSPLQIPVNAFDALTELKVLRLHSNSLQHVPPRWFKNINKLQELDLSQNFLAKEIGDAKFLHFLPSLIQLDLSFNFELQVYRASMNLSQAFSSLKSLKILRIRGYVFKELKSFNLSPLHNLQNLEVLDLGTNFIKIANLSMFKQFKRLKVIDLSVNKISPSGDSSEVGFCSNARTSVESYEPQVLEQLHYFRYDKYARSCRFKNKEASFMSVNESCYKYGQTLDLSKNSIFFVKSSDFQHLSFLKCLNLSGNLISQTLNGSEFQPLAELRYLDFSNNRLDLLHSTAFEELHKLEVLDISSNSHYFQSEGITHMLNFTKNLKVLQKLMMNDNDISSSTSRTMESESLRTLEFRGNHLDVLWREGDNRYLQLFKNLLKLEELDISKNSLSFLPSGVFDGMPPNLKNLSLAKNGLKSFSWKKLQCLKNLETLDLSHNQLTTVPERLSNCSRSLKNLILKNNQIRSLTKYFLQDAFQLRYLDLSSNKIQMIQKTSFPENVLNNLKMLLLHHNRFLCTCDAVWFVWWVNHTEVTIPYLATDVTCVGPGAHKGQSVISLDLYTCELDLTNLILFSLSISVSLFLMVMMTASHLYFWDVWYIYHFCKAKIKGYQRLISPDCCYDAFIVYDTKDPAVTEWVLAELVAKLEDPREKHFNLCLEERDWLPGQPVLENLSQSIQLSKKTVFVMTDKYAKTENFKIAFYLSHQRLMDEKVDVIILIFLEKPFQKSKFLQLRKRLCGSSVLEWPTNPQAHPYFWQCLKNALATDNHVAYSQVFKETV
Text: (§1) Human Peripheral Blood Mononuclear Cell (PBMC) Cell-Based Assay
(§2) Human peripheral blood mononuclear cells (PBMCs) consist of lymphocytes, monocytes and dendritic cells that express TLR7, TLR8 and TLR9. These cells respond to TLR7, TLR8 and TLR9 ligand stimulation and produce cytokines and chemokines in vitro and in vivo. Human PBMCs are therefore suitable to be used in a cell-based assay to assess the in vitro potency of a TLR 7, 8, and/or 9 antagonist. The result is expected to be more translatable to the pharmacodynamics response in vivo than cell line-based assays.
(§3) Cryopreserved human PBMCs from healthy donors were thawed and resuspended in RPMI-1640 media with L-glutamine (Corning) supplemented with 10% Fetal Bovine Serum (Hyclone) and 1× Penicillin-Streptomycin (Corning). After counting, the cell density was adjusted to 2 million cells/ml and incubated for 1 hour at 37° C., 5% CO2 for recovery. Following the recovery, the cells were plated by adding 50p per well (100,000 cells) to 384-well cell culture plates (Greiner) containing 250 nl of test antagonists in 100% DMSO per well, in a 10 points dose response in quadruplicates. PBMCs were incubated in the presence of test antagonists for one hour at 37° C., 5% CO2 before being stimulated with a TLR7 or TLR9 agonist. GS-986 (Gilead Sciences) was used as the TLR7 agonist at a final concentration of 400 nM. ODN-2216 (InvivoGen) was used as the TLR9 agonist at a final concentration of 3μM. PBMCs were incubated in the presence of the test antagonist and the TLR7 (or TLR9) agonist for an additional 6 hours at 37° C., 5% CO2. At the end of the incubation, the cell culture plates were centrifuged at 500 g for 5 min, and the cell culture supernatant was collected. The level of cytokines (IL-6 and IFNα) in the supernatant was measured by electrochemiluminescence immunoassays (Mesoscale Discovery) following manufacturer's recommended protocols. The level of cytokine measured was plotted against the test antagonist concentration and fitted to a sigmoidal function to determine the EC50, which are shown below in Table 2.

TLR9 = molecular target: T2, TLR9 (Homo sapiens, UniProt Q9NR96); experiment: Human PBMC cell-based assay, TLR9 agonist stimulation; settings: human PBMCs, read-out: TLR-9 EC50
T2 construct: lymphocytes, monocytes and dendritic cells that express TLR7, TLR8 and TLR9; endogenous in cells; host or cells: cryopreserved human PBMCs from healthy donors
T2 sequence (Q9NR96 26-1032): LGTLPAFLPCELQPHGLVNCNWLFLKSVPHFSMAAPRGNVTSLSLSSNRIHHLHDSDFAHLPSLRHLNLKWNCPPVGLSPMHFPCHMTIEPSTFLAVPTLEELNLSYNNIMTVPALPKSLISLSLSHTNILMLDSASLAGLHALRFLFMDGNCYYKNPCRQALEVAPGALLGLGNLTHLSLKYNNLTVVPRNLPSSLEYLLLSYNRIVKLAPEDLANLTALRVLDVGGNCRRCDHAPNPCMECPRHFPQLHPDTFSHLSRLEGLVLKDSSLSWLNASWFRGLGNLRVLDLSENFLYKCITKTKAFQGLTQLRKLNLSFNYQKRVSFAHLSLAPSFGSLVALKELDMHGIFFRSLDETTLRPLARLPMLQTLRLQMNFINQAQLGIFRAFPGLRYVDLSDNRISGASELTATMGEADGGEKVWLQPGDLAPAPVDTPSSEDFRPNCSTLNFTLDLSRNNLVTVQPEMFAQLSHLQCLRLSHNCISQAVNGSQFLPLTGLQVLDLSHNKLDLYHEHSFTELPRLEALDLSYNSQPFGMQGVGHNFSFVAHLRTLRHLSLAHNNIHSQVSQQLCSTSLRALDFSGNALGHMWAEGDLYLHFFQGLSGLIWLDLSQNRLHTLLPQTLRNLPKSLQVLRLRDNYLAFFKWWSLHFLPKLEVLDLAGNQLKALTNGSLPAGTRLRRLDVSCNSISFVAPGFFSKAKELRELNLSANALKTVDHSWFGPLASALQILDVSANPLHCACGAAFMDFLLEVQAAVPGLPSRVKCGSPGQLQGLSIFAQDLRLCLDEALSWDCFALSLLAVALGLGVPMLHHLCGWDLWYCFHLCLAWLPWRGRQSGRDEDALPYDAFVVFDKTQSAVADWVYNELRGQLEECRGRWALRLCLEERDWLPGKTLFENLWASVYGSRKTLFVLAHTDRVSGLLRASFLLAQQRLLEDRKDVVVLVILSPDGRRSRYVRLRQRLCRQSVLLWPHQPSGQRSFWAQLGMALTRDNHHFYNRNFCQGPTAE
Text: as §1, §2, §3

[1] = TLR7 agonist GS-986 400 nM, 6 hours, cytokines (IL-6 and IFNα) in supernatant, Table 2
[2] = TLR9 agonist ODN-2216 3 μM, 6 hours, cytokines (IL-6 and IFNα) in supernatant, Table 2
[3] = same protocol as Example A, Table 3 comparison

Row | Structure (SMILES) | EC50 (TLR7; [1]) [nM] | EC50 (TLR9; [2]) [nM] | EC50 (TLR7; [3]) [nM] | EC50 (TLR9; [3]) [nM]
1 | Cc1cc(-c2ccc3c(C)c(-c4cnc(N5CCNCC5)nc4)[nH]c3c2)cc(C)n1 [Example 1, 6-(2,6-dimethylpyridin-4-yl)-3-methyl-2-(2-(piperazin-1-yl)pyrimidin-5-yl)-1H-indole] | 7.3 | 34.6 | – | –
2 | Cc1cc(-c2ccc3c(C)c(-c4ccc(N5CCNCC5)nc4)[nH]c3c2)cc(C)n1 [Example 2, 6-(2,6-dimethylpyridin-4-yl)-3-methyl-2-(6-(piperazin-1-yl)pyridin-3-yl)-1H-indole] | 6.8 | 33.2 | – | –
3 | Cc1c(-c2ccc(N3CCNCC3)nc2)[nH]c2cc(-c3ccc(C#N)c4ncccc34)ccc12 [Example 7] | 0.5 | 508 | – | –
4 | Cc1cc(-c2[nH]c3ccc(-c4ccc(N5CCNCC5)nc4)cc3c2C(C)C)cc(C)n1 [Example A, reference compound] | – | – | 3.9 | 263

Second part, the compound after the results:

Row | EC50 (TLR7; [1]) [nM] | EC50 (TLR9; [2]) [nM] | EC50 (TLR7; [3]) [nM] | EC50 (TLR9; [3]) [nM] | Structure (SMILES)
5 | 1.4 | 322 | – | – | Cc1c(-c2ccc(N3CCNCC3)nc2)[nH]c2cc(-c3cc(C)c4ncnn4c3)ccc12 [Example 4]
6 | 0.5 | 305 | – | – | CCc1c(-c2ccc(N3CCNCC3)nc2)[nH]c2cc(-c3cc(C)c4ncnn4c3)ccc12 [Example 23]
7 | – | – | 0.5 | 716 | Cc1cc(-c2[nH]c3ccc(-c4ccc(N5CCNCC5)nc4)cc3c2C(C)C)cn2ncnc12 [Example B, reference compound]
